Data from patent publication US20210161855A1, “5-LIPOXYGENASE ANTAGONISTS” (INSTITUTO DE MEDICINA MOLECULAR JOÃO LOBO ANTUNES, priority 2017, published 2021).
Where two headings read alike, the source gives them in different places.

Assays:
5-LO [1] = target: T1, 5-LO (Homo sapiens, UniProt P09917); experiment: 5-LO activity in neutrophil homogenates; format: biochemical; set-up: endogenous in cells; host or cells: neutrophils isolated from peripheral blood of healthy adult volunteers; intact or sonicated homogenates; settings: n=3
T1 sequence (P09917 1-674): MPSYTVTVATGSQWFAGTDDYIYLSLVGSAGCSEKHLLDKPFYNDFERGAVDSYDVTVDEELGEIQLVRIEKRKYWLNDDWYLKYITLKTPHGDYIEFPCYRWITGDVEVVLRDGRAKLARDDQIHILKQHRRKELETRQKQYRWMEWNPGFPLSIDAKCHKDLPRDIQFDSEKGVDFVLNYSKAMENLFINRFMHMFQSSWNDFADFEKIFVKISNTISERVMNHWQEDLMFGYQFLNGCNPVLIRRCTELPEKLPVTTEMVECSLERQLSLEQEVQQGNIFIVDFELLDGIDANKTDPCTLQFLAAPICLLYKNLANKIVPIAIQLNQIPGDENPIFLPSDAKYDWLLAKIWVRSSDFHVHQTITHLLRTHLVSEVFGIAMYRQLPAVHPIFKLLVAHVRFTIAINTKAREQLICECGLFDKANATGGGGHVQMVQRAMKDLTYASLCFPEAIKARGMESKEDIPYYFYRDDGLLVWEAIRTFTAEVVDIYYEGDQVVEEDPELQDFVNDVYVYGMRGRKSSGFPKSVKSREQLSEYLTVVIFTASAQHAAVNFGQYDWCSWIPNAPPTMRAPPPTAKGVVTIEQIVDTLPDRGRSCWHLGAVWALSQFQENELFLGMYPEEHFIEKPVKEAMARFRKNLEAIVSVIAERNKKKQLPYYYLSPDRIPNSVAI
Procedure: Peripheral blood (University Hospital Jena, Germany) was withdrawn from healthy adult volunteers with consent that had not taken any anti-inflammatory drugs during the last 10 days, by venipuncture in heparinized tubes (16 IE heparin/mL blood). The blood was centrifuged at 4000 g for 20 min at 20° C. for preparation of leukocyte concentrates. Leukocyte concentrates were then subjected to dextran sedimentation and centrifugation on lymphocyte separation medium (LSM 1077, PAA, Colbe, Germany). Contaminating erythrocytes of pelleted neutrophils were removed by hypotonic Iysis. Neutrophils were then washed twice in ice-cold PBS and finally resuspended in PBS pH 7.4 containing 1 mg/mL glucose or in PBS pH 7.4 containing 1 mg/mL glucose plus 1 mM CaCl2 (PGC buffer) (purity>96-97%).
For analysis of 5-LO product formation in corresponding homogenates, neutrophils were resuspended in PBS containing 1 mM EDTA for 5 min at 4° C. and sonicated (4×10 s, 4° C.). Homogenates, corresponding to 5×10^6 cells/mL, were incubated with the test compounds or vehicle (0.1% DMSO) with or without 1 mM DTT for 15 min at 4° C., pre-warmed for 30 s at 37° C., and the reaction was started by the addition of 2 mM CaCl2 plus the indicated concentrations of AA (routinely 20 μM). The reaction was stopped after 10 min and the samples were analyzed as described for intact cells above.
Data are expressed as mean±S.E.M. IC50 values were calculated from averaged measurements at 6 different concentrations of the compound by nonlinear regression using GraphPad Prism software (San Diego, Calif.) one site binding competition. Statistical evaluation of the data was performed by one-way ANOVA followed by a Tukey-Kramer post-hoc test for multiple comparisons respectively. A p value<0.05 (*) was considered significant.

5-LO [2] = target: T1, 5-LO; experiment: Circular dichroism binding, protein melting curves
HL-60 = settings: cited from earlier work
HEL = experiment: Cell viability, AML model HEL (FIG. 9a); format: cell-based; settings: Homo sapiens, n=3
HEL-GFP cells = experiment: Xenograft model of human AML, HEL-GFP cells in NSG mice; format: in vivo
Procedure: The xenograft model of human AML used relies in the intra-bone marrow injection of 5×10^5 HEL-GFP cells into the right tibia of previously irradiated (200 rad) NSG mice. Upon tumor trigger in the blood mouse are randomly assigned for treatment with 1 (50 mg/kg intra-peritoneal) or vehicle.

[3] = target: Phosphodiesterase 5 (PDE5) (Homo sapiens, UniProt O76074); experiment: Phosphodiesterase 5 assay (Cerep); format: biochemical; settings: 2 μM
Procedure: Phosphodiesterase 5 (PDE5) assay was performed at Cerep, SA (Celle l'Evescault, France) on a fee-for-service basis (Ref 0204^39), as described in Table 2. [table]

12-lipoxygenase (12-LO) = target: T2, 12-lipoxygenase (12-LO) (Homo sapiens, UniProt P18054); experiment: 12-LO inhibition assay, Method A (Cerep); format: biochemical
T2 sequence (P18054 1-663): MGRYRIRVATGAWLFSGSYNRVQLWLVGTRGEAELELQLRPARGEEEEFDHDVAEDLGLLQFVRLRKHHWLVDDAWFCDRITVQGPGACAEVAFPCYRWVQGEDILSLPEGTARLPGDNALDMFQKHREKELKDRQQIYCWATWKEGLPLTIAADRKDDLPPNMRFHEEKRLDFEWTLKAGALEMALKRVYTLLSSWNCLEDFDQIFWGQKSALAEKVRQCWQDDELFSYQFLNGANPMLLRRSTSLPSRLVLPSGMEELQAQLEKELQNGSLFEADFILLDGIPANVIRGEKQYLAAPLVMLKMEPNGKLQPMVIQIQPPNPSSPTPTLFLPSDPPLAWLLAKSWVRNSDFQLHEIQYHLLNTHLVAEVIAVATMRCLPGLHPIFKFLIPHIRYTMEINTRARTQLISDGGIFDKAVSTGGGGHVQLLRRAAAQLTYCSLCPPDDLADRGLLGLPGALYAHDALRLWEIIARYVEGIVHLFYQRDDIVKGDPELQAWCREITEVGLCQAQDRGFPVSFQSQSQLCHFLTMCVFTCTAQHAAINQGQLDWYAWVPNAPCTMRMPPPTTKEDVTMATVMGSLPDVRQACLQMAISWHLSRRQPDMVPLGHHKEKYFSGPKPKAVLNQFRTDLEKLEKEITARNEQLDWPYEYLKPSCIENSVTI
Procedure: Method A: 5-Lipoxygenase (5-LO), 12-lipoxygenase (12-LO) and 15-lipoxygenase-2 (15-LO-2) inhibition assays were performed at Cerep, SA (Celle l'Evescault, France) on a fee-for-service basis (Ref 0772^36, 0883^37 and 0893^38, respectively), as described in Table 1.

`CC1(C)CCC2=C(O1)c1ccccc1C(=O)C2=O` [Compound 1, 3,4-dihydro-2,2-dimethyl-2H-naphtho[1,2-b]pyran-5,6-dione] gave an IC50 (5-LO [1]; 1 mM DTT, read-out: IC50 (with DTT), 5-LO activity in neutrophil homogenates) of 90 nM, an IC50 (5-LO [1]; absence of DTT, read-out: IC50 (without DTT), 5-LO activity in neutrophil homogenates) of 5200 nM and a Kd (5-LO [2]) of 5700 nM. The pGI50 z-score (HL-60; NCI-60, z-transformed pGI50) was 2.38, the GI50 (HL-60; NCI-60) was 62.4 nM and the IC50 (HEL) was 900 nM. The Overall survival (HEL-GFP cells; 50 mg/kg intra-peritoneal) was “significantly increased overall survival”, the “Tumour burden in the blood” value (HEL-GFP cells; 50 mg/kg intra-peritoneal, day 9) was “tendency for lower burden” and the “Tumour burden in organs (liver, spleen and lung)” value (HEL-GFP cells; longest-living treated mouse, sacrificed at day 30, versus non-treated controls) was “lower tumour burden in all the analysed organs”. For the same compound, the PDE5 screening outcome [3] was “inactivity” and the inhibition at 5 µM (12-lipoxygenase (12-LO)) was 38%.
